Data as given in US20030186434A1, “Method of forming vertebrate pancreas in vitro” (priority 2002, published 2003).

System: blastopore upper lip of early gastrula of a Xenopus
Assay: Tissue differentiation of blastopore upper lip cultured continuously in retinoic acid solution for 10 days
Type: cell-based
Settings: for Atypical epidermis differentiated, specimens (%) / Cartilage differentiated, specimens (%) / Cement gland differentiated, specimens (%) / Coelomic epithelium differentiated, specimens (%) / Ear vesicle differentiated, specimens (%) / Epidermis differentiated, specimens (%) / Eye or its fragments differentiated, specimens (%) / Gastric gland differentiated, specimens (%) / Hemocyte differentiated, specimens (%) / Intestinal epithelium differentiated, specimens (%) / Mesenchyme differentiated, specimens (%) / Muscle differentiated, specimens (%) / Neural tissue differentiated, specimens (%) / Notochord differentiated, specimens (%) / Pancreas differentiated, specimens (%) / Pharyngeal epithelium differentiated, specimens (%) / Pronephros differentiated, specimens (%) / Yolk-rich cell differentiated, specimens (%): continuous 10 days

CC1=C(/C=C/C(C)=C/C=C/C(C)=C/C(=O)O)C(C)(C)CCC1 [Retinoic acid, retinoic acid]
survival of explants while being cultured (10^−4 M, continuous treatment): all the explants died
Atypical epidermis differentiated, specimens (%) (10^−5 M, 17 specimens): 0 (0)
Cartilage differentiated, specimens (%) (10^−5 M, 17 specimens): 0 (0)
Cement gland differentiated, specimens (%) (10^−5 M, 17 specimens): 0 (0)
Coelomic epithelium differentiated, specimens (%) (10^−5 M, 17 specimens): 2 (12)
Ear vesicle differentiated, specimens (%) (10^−5 M, 17 specimens): 0 (0)
Epidermis differentiated, specimens (%) (10^−5 M, 17 specimens): 7 (41)
Eye or its fragments differentiated, specimens (%) (10^−5 M, 17 specimens): 0 (0)
Gastric gland differentiated, specimens (%) (10^−5 M, 17 specimens): 0 (0)
Hemocyte differentiated, specimens (%) (10^−5 M, 17 specimens): 0 (0)
Intestinal epithelium differentiated, specimens (%) (10^−5 M, 17 specimens): 8 (47)
Mesenchyme differentiated, specimens (%) (10^−5 M, 17 specimens): 8 (47)
Muscle differentiated, specimens (%) (10^−5 M, 17 specimens): 0 (0)
Neural tissue differentiated, specimens (%) (10^−5 M, 17 specimens): 0 (0)
Notochord differentiated, specimens (%) (10^−5 M, 17 specimens): 14 (82)
Pancreas differentiated, specimens (%) (10^−5 M, 17 specimens): 2 (12)
Pharyngeal epithelium differentiated, specimens (%) (10^−5 M, 17 specimens): 5 (29)
Pronephros differentiated, specimens (%) (10^−5 M, 17 specimens): 0 (0)
Yolk-rich cell differentiated, specimens (%) (10^−5 M, 17 specimens): 15 (88)
Atypical epidermis differentiated, specimens (%) (10^−6 M, 16 specimens): 0 (0)
Cartilage differentiated, specimens (%) (10^−6 M, 16 specimens): 0 (0)
Cement gland differentiated, specimens (%) (10^−6 M, 16 specimens): 0 (0)
Coelomic epithelium differentiated, specimens (%) (10^−6 M, 16 specimens): 2 (13)
Ear vesicle differentiated, specimens (%) (10^−6 M, 16 specimens): 0 (0)
Epidermis differentiated, specimens (%) (10^−6 M, 16 specimens): 1 (6)
Eye or its fragments differentiated, specimens (%) (10^−6 M, 16 specimens): 0 (0)
Gastric gland differentiated, specimens (%) (10^−6 M, 16 specimens): 2 (13)
Hemocyte differentiated, specimens (%) (10^−6 M, 16 specimens): 0 (0)
Intestinal epithelium differentiated, specimens (%) (10^−6 M, 16 specimens): 14 (88)
Mesenchyme differentiated, specimens (%) (10^−6 M, 16 specimens): 13 (81)
Muscle differentiated, specimens (%) (10^−6 M, 16 specimens): 3 (19)
Neural tissue differentiated, specimens (%) (10^−6 M, 16 specimens): 0 (0)
Notochord differentiated, specimens (%) (10^−6 M, 16 specimens): 14 (88)
Pancreas differentiated, specimens (%) (10^−6 M, 16 specimens): 1 (6)
Pharyngeal epithelium differentiated, specimens (%) (10^−6 M, 16 specimens): 3 (19)
Pronephros differentiated, specimens (%) (10^−6 M, 16 specimens): 0 (0)
Yolk-rich cell differentiated, specimens (%) (10^−6 M, 16 specimens): 14 (88)
Atypical epidermis differentiated, specimens (%) (10^−7 M, 15 specimens): 0 (0)
Cartilage differentiated, specimens (%) (10^−7 M, 15 specimens): 0 (0)
Cement gland differentiated, specimens (%) (10^−7 M, 15 specimens): 0 (0)
Coelomic epithelium differentiated, specimens (%) (10^−7 M, 15 specimens): 9 (60)
Ear vesicle differentiated, specimens (%) (10^−7 M, 15 specimens): 0 (0)
Epidermis differentiated, specimens (%) (10^−7 M, 15 specimens): 8 (53)
Eye or its fragments differentiated, specimens (%) (10^−7 M, 15 specimens): 0 (0)
Gastric gland differentiated, specimens (%) (10^−7 M, 15 specimens): 3 (20)
Hemocyte differentiated, specimens (%) (10^−7 M, 15 specimens): 0 (0)
Intestinal epithelium differentiated, specimens (%) (10^−7 M, 15 specimens): 5 (33)
Mesenchyme differentiated, specimens (%) (10^−7 M, 15 specimens): 9 (60)
Muscle differentiated, specimens (%) (10^−7 M, 15 specimens): 4 (27)
Neural tissue differentiated, specimens (%) (10^−7 M, 15 specimens): 2 (13)
Notochord differentiated, specimens (%) (10^−7 M, 15 specimens): 14 (93)
Pancreas differentiated, specimens (%) (10^−7 M, 15 specimens): 1 (7)
Pharyngeal epithelium differentiated, specimens (%) (10^−7 M, 15 specimens): 9 (60)
Pronephros differentiated, specimens (%) (10^−7 M, 15 specimens): 1 (7)
Yolk-rich cell differentiated, specimens (%) (10^−7 M, 15 specimens): 13 (87)
Atypical epidermis differentiated, specimens (%) (10^−8 M, 20 specimens): 0 (0)
Cartilage differentiated, specimens (%) (10^−8 M, 20 specimens): 9 (45)
Cement gland differentiated, specimens (%) (10^−8 M, 20 specimens): 0 (0)
Coelomic epithelium differentiated, specimens (%) (10^−8 M, 20 specimens): 6 (30)
Ear vesicle differentiated, specimens (%) (10^−8 M, 20 specimens): 0 (0)
Epidermis differentiated, specimens (%) (10^−8 M, 20 specimens): 19 (95)
Eye or its fragments differentiated, specimens (%) (10^−8 M, 20 specimens): 0 (0)
Gastric gland differentiated, specimens (%) (10^−8 M, 20 specimens): 0 (0)
Hemocyte differentiated, specimens (%) (10^−8 M, 20 specimens): 0 (0)
Intestinal epithelium differentiated, specimens (%) (10^−8 M, 20 specimens): 2 (10)
Mesenchyme differentiated, specimens (%) (10^−8 M, 20 specimens): 19 (95)
Muscle differentiated, specimens (%) (10^−8 M, 20 specimens): 12 (60)
Neural tissue differentiated, specimens (%) (10^−8 M, 20 specimens): 7 (35)
Notochord differentiated, specimens (%) (10^−8 M, 20 specimens): 17 (85)
Pancreas differentiated, specimens (%) (10^−8 M, 20 specimens): 1 (5)
Pharyngeal epithelium differentiated, specimens (%) (10^−8 M, 20 specimens): 12 (60)
Pronephros differentiated, specimens (%) (10^−8 M, 20 specimens): 0 (0)
Yolk-rich cell differentiated, specimens (%) (10^−8 M, 20 specimens): 9 (45)
Atypical epidermis differentiated, specimens (%) (10^−9 M, 11 specimens): 0 (0)
Cartilage differentiated, specimens (%) (10^−9 M, 11 specimens): 5 (45)
Cement gland differentiated, specimens (%) (10^−9 M, 11 specimens): 0 (0)
Coelomic epithelium differentiated, specimens (%) (10^−9 M, 11 specimens): 5 (45)
Ear vesicle differentiated, specimens (%) (10^−9 M, 11 specimens): 0 (0)
